Laboratory results: the supplement of paper PMC10307832

Columns and labels:
Test in all cases: relative viability (nuclei count vs DMSO), 5 days (fraction); higher = more cells survive
[1] = test system: NCI-H1793
Procedure, shortened: (§1)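 The day after seeding in 1536-well plates, lung cancer cell lines were treated by pin tool with a single drug, or with a fixed anchor-drug dose together with five library-drug doses (not always all listed) in √10 steps. After 5 days, a combined fix-and-stain solution (final 0.05% Triton X-100, 1% formaldehyde, 1 ug/ml Hoechst) was added. Nuclei counted on 4× images gave relative viability as treated counts over vehicle counts, reported as the median of duplicate plates.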

[2] = test system: NCI-H1944
Procedure, shortened: as §1

[3] = test system: NCI-H2023
Procedure, shortened: as §1

[4] = test system: NCI-H2085
Procedure, shortened: as §1

[5] = test system: NCI-H2087
Procedure, shortened: as §1

[6] = test system: NCI-H2405
Procedure, shortened: as §1

[7] = test system: NCI-H322M
Procedure, shortened: as §1

[8] = test system: NCI-H520
Procedure, shortened: as §1

[9] = test system: NCI-H650
Procedure, shortened: as §1

[10] = test system: SK-MES-1
Procedure, shortened: as §1

[11] = test system: UMC-11
Procedure, shortened: as §1

CC1(C)CCC(c2ccc(Cl)cc2)=C(CN2CCN(c3ccc(C(=O)NS(=O)(=O)c4ccc(N[C@H](CCN5CCOCC5)CSc5ccccc5)c(S(=O)(=O)C(F)(F)F)c4)cc3)CC2)C1 [Navitoclax] + Cc1nc(NC(=O)N2CCC[C@H]2C(N)=O)sc1-c1ccnc(C(C)(C)C(F)(F)F)c1 [Alpelisib] (partner 2 µM)
relative viability ([1]; first compound 0.01581 µM): 0.799
relative viability ([1]; first compound 0.05 µM): 0.574
relative viability ([1]; first compound 0.1581 µM): 0.858
relative viability ([1]; first compound 0.5 µM): 0.609
relative viability ([2]; first compound 0.005 µM): 0.832
relative viability ([2]; first compound 0.01581 µM): 0.863
relative viability ([2]; first compound 0.05 µM): 0.786
relative viability ([2]; first compound 0.1581 µM): 0.836
relative viability ([2]; first compound 0.5 µM): 0.82
relative viability ([3]; first compound 0.005 µM): 0.581
relative viability ([3]; first compound 0.01581 µM): 0.696
relative viability ([3]; first compound 0.05 µM): 0.586
relative viability ([3]; first compound 0.1581 µM): 0.616
relative viability ([3]; first compound 0.5 µM): 0.625
relative viability ([4]; first compound 0.005 µM): 0.944
relative viability ([4]; first compound 0.01581 µM): 0.996
relative viability ([4]; first compound 0.05 µM): 0.881
relative viability ([4]; first compound 0.1581 µM): 0.957
relative viability ([4]; first compound 0.5 µM): 0.925
relative viability ([5]; first compound 0.005 µM): 1.25
relative viability ([5]; first compound 0.01581 µM): 1.17
relative viability ([5]; first compound 0.05 µM): 1.03
relative viability ([5]; first compound 0.1581 µM): 1.05
relative viability ([5]; first compound 0.5 µM): 1.08
relative viability ([6]; first compound 0.005 µM): 0.762
relative viability ([6]; first compound 0.01581 µM): 0.896
relative viability ([6]; first compound 0.05 µM): 0.954
relative viability ([6]; first compound 0.1581 µM): 0.83
relative viability ([6]; first compound 0.5 µM): 0.834
relative viability ([7]; first compound 0.005 µM): 0.644
relative viability ([7]; first compound 0.01581 µM): 0.772
relative viability ([7]; first compound 0.05 µM): 0.931
relative viability ([7]; first compound 0.1581 µM): 0.791
relative viability ([7]; first compound 0.5 µM): 0.591
relative viability ([8]; first compound 0.005 µM): 0.915
relative viability ([8]; first compound 0.01581 µM): 0.892
relative viability ([8]; first compound 0.05 µM): 0.981
relative viability ([8]; first compound 0.1581 µM): 0.892
relative viability ([8]; first compound 0.5 µM): 0.982
relative viability ([9]; first compound 0.005 µM): 1.1
relative viability ([9]; first compound 0.01581 µM): 1.15
relative viability ([9]; first compound 0.05 µM): 1.15
relative viability ([9]; first compound 0.1581 µM): 1.11
relative viability ([9]; first compound 0.5 µM): 1.16
relative viability ([10]; first compound 0.005 µM): 0.761
relative viability ([10]; first compound 0.01581 µM): 1.01
relative viability ([10]; first compound 0.05 µM): 0.922
relative viability ([10]; first compound 0.1581 µM): 0.827
relative viability ([10]; first compound 0.5 µM): 1.04
relative viability ([11]; first compound 0.005 µM): 0.961
relative viability ([11]; first compound 0.01581 µM): 1.02
relative viability ([11]; first compound 0.1581 µM): 0.979
relative viability ([11]; first compound 0.5 µM): 0.623
